{
  "source": "patent US11071727B2",
  "about": "“Therapeutic targeting of proteolytic cleavage of the mixed lineage leukemia gene product (MLL1) by taspase1 using kinase inhibitors” (Northwestern University, priority 2018, dated 2021)",
  "test_system": "MLL-AF9 leukemia",
  "experiment": "MLL-AF9 syngeneic leukemia mouse model",
  "assay_type": "in vivo",
  "procedure": "FIG. 7. CKII inhibition delays the leukemia progression and improves survival of MLL-AF9 mice and MOLM13 human leukemia mice. (A) Timeline of the MLL-AF9 leukemia mouse model and CKII inhibitor treatment. Drug treatments were started at day 10 after transplantation. (B) Kaplan-Meier survival curves of secondary transplanted C57BL/6 mice after vehicle and CX-4945 treatment at day 10. Vehicle or CX-4945 (50 mg/kg or 75 mg/kg) were administered twice daily by oral gavage for a total of twenty treatments. Leukemia was confirmed at the endpoint for each transplant mouse. The number (n) indicates the number of mice in each group. The p values were calculated using the log rank test. (C) Timeline of the MOLM13 human leukemia xenograft mice. Drug treatments were started at day 5 after transplantation. (D) Kaplan-Meier survival curves of NSGS mice after vehicle and CX-4945 treatment. Vehicle or CX-4945 (50 mg/kg) were administered twice daily by oral gavage for a total of twenty treatments. Leukemia was confirmed at the endpoint for each transplant mouse by flow cytometry, H&E staining and histology analysis. The number (n) indicates the number of mice in each group. The p value was calculated using the log rank test. (E) Taspase1 cleavage regulation of MLL1 mediated by CKII phosphorylation. MLL1 cleavage by taspase1 primed the protein to degradation pathway. […]",
  "data": [
    {"smiles": "O=C(O)c1ccc2c(c1)nc(Nc1cccc(Cl)c1)c1ccncc12", "note": "[CX-4945, 5-(3-chlorophenylamino)benzo[c][2,6]naphthyridine-8-carboxylic acid]", "values": [
      {"measurement": "leukemia progression and survival", "setting": "C57BL/6 mice, 50 mg/kg or 75 mg/kg twice daily by oral gavage, twenty treatments from day 10", "result": "significantly delayed the leukemia progression and improved the survival"},
      {"measurement": "weight of the mice", "setting": "MLL-AF9 syngeneic mouse model, compared with vehicle control group", "result": "did not affect the weight of the mice"}
    ]}
  ]
}
